Experimental data taken from ChEMBL document CHEMBL1201862, “PubChem BioAssay data set” (2004).
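Assay format: 96-well plates, 48-hour exposure. Here, GI50 denotes the concentration required for 50% inhibition of growth.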 The source made the active and inactive calls. Rule as the data show it: active = GI50 up to about 1.1 µM and inactive = higher.

Tests used:
Assay in all cases: inhibition of tumour cell growth, NCI panel, 48 h
SK-MEL-28 = system: SK-MEL-28
MOLT-4 = system: MOLT-4
SF-539 = system: SF-539
SN12C = system: SN12C
SK-MEL-5 = system: SK-MEL-5
RPMI-8226 = system: RPMI-8226
UO-31 = system: UO-31
HOP-62 = system: HOP-62
KM12 = system: KM12
HCT-15 = system: HCT-15
COLO 205 = system: COLO 205
SNB-75 = system: SNB-75
UACC-257 = system: UACC-257
LOX IMVI = system: LOX IMVI
HCT-116 = system: HCT-116
NCI-H23 = system: NCI-H23
UACC-62 = system: UACC-62
HT-29 = system: HT-29
CAKI-1 = system: CAKI-1
SF-295 = system: SF-295

SMILES | GI50 (SK-MEL-28) | GI50 (MOLT-4) | GI50 (SF-539) | GI50 (SN12C) | GI50 (SK-MEL-5) | GI50 (RPMI-8226) | GI50 (UO-31) | GI50 (HOP-62) | GI50 (KM12) | GI50 (HCT-15) | GI50 (COLO 205) | GI50 (SNB-75) | GI50 (UACC-257) | GI50 (LOX IMVI) | GI50 (HCT-116) | GI50 (NCI-H23) | GI50 (UACC-62) | GI50 (HT-29) | GI50 (CAKI-1) | GI50 (SF-295)
Cc1cc(O)nc(NN2C(Cl)C(=O)C2c2c(O)ccc3ccccc23)n1 (stereo not drawn) | 19.5 µM (inactive) | 16.3 µM (inactive) | 21.9 µM (inactive) | 21.7 µM (inactive) | 15.2 µM (inactive) | 15.5 µM (inactive) | 26.1 µM (inactive) | 15.1 µM (inactive) | 23 µM (inactive) | 15.6 µM | 25.9 µM (inactive) | 8.75 µM (inactive) | 31.2 µM (inactive) | 13.7 µM (inactive) | 17.3 µM (inactive) | 16.4 µM (inactive) | 20.3 µM (inactive) | 25 µM (inactive) | – | –
COC(=O)C1=C(O)C(C(=O)OC)[C@@]2(O)[C@@H](C(=O)OC)[C@H](C)[C@@H](C)[C@@H]1[C@@H]2C(=O)OC (stereo partly drawn) | > 100 µM (inactive) | > 100 µM (inactive) | 35.6 µM (inactive) | > 100 µM (inactive) | – | 51.1 µM (inactive) | 38.5 µM (inactive) | 89.5 µM (inactive) | 34.8 µM (inactive) | 41.5 µM | – | 57.7 µM (inactive) | 46.6 µM (inactive) | 51.9 µM (inactive) | 66.1 µM (inactive) | 75.2 µM (inactive) | 55.5 µM (inactive) | 55.7 µM (inactive) | – | –
CC[C@@]1(O)C[C@H](OC2CC(N(C)C)C(OC3CC(O)C(OC4CC(O)C(O)C(C)O4)C(C)O3)C(C)O2)c2c(cc3c(c2O)C(=O)c2c(O)ccc(O)c2C3=O)[C@H]1C(=O)OC (stereo partly drawn) | 0.0369 µM (active) | 0.0141 µM (active) | < 0.0214 µM (active) | 0.0148 µM (active) | 0.0194 µM (active) | 0.011 µM (active) | 0.112 µM (active) | 0.06 µM (active) | < 0.0174 µM (active) | 0.151 µM | 0.0131 µM (active) | 0.0548 µM (active) | 0.0255 µM (active) | 0.163 µM (active) | 0.00507 µM (active) | 0.0404 µM (active) | 0.017 µM (active) | 0.022 µM (active) | 0.0082 µM (active) | 0.0113 µM (active)
O=C(/N=N/c1cc(Cl)ccc1Cl)NNc1cc(Cl)ccc1Cl | 23.5 µM (inactive) | > 10 µM (inactive) | – | 21.4 µM (inactive) | 12.7 µM (inactive) | 11.9 µM (inactive) | 11.7 µM (inactive) | 17.3 µM (inactive) | 16.7 µM (inactive) | 16.5 µM | 21.8 µM (inactive) | 28.4 µM (inactive) | – | – | 18.6 µM (inactive) | 18.1 µM (inactive) | 11.2 µM (inactive) | 17.5 µM (inactive) | 16 µM (inactive) | 22.8 µM (inactive)
Cc1ccc(C(=O)Nc2ncn(C3CC(O)C(CO)O3)c(=O)n2)cc1 (stereo not drawn) | > 100 µM (inactive) | > 29.6 µM (inactive) | > 100 µM (inactive) | > 100 µM (inactive) | > 100 µM (inactive) | > 45.9 µM (inactive) | > 100 µM (inactive) | > 100 µM (inactive) | > 100 µM (inactive) | > 100 µM | > 100 µM (inactive) | > 52.6 µM (inactive) | > 100 µM (inactive) | > 100 µM (inactive) | > 100 µM (inactive) | > 100 µM (inactive) | > 100 µM (inactive) | > 100 µM (inactive) | > 100 µM (inactive) | > 100 µM (inactive)
Cc1ccc(C(=O)N/N=C(\N=N\c2cccc(C)c2)c2ccc(N(CCC#N)CCC#N)cc2C)cc1 | 13.1 µM (inactive) | 38.9 µM (inactive) | 64.7 µM (inactive) | – | 32.2 µM (inactive) | 49.9 µM (inactive) | > 100 µM (inactive) | > 100 µM (inactive) | 31.8 µM (inactive) | > 100 µM | > 100 µM (inactive) | 47.5 µM (inactive) | 58.9 µM (inactive) | 88.9 µM (inactive) | – | > 100 µM (inactive) | 57.1 µM (inactive) | 34.4 µM (inactive) | > 100 µM (inactive) | > 100 µM (inactive)
CCOC(=O)C1=NN(c2ccccc2)C2=CC(C)=NN(C)C(=S)N21 | > 100 µM (inactive) | > 100 µM (inactive) | > 100 µM (inactive) | > 100 µM (inactive) | > 100 µM (inactive) | > 100 µM (inactive) | > 100 µM (inactive) | – | > 100 µM (inactive) | > 100 µM | > 100 µM (inactive) | > 100 µM (inactive) | > 100 µM (inactive) | > 100 µM (inactive) | > 100 µM (inactive) | > 100 µM (inactive) | > 100 µM (inactive) | > 100 µM (inactive) | > 100 µM (inactive) | > 100 µM (inactive)
